Legend:
Details in all cases: 72 h
Caco-2 [1] = test: cell viability relative to DMSO; higher = less toxic
Calu-3 [2] = test: as above
HepG2 [3] = test: as above
U2OS [4] = test: as above
Vero E6 [5] = test: as above
Caco-2 [6] = test: relative viability EC50 (midpoint between 100% and the lowest measured viability); higher = less toxic
Calu-3 [7] = test: as above
HepG2 [8] = test: as above
U2OS [9] = test: as above
Vero E6 [10] = test: as above
Caco-2 [11] = test: drug sensitivity score (DSS) for viability; higher = more toxic; extreme values may be limits of the assay
Calu-3 [12] = test: as above
HepG2 [13] = test: as above
U2OS [14] = test: as above
Vero E6 [15] = test: as above

Row | Compound | cell viability (Caco-2 [1]; 1 nM) | cell viability (Caco-2 [1]; 10 nM) | cell viability (Caco-2 [1]; 100 nM) | cell viability (Caco-2 [1]; 1000 nM) | cell viability (Caco-2 [1]; 10000 nM) | cell viability (Calu-3 [2]; 1 nM) | cell viability (Calu-3 [2]; 10 nM) | cell viability (Calu-3 [2]; 100 nM) | cell viability (Calu-3 [2]; 1000 nM) | cell viability (Calu-3 [2]; 10000 nM) | cell viability (HepG2 [3]; 1 nM) | cell viability (HepG2 [3]; 10 nM) | cell viability (HepG2 [3]; 100 nM) | cell viability (HepG2 [3]; 1000 nM) | cell viability (HepG2 [3]; 10000 nM) | cell viability (U2OS [4]; 1 nM) | cell viability (U2OS [4]; 10 nM) | cell viability (U2OS [4]; 100 nM) | cell viability (U2OS [4]; 1000 nM) | cell viability (U2OS [4]; 10000 nM) | cell viability (Vero E6 [5]; 1 nM) | cell viability (Vero E6 [5]; 10 nM) | cell viability (Vero E6 [5]; 100 nM) | cell viability (Vero E6 [5]; 1000 nM) | cell viability (Vero E6 [5]; 10000 nM) | relative viability EC50 (Caco-2 [6]) | relative viability EC50 (Calu-3 [7]) | relative viability EC50 (HepG2 [8]) | relative viability EC50 (U2OS [9]) | relative viability EC50 (Vero E6 [10]) | drug sensitivity score (Caco-2 [11]) | drug sensitivity score (Calu-3 [12]) | drug sensitivity score (HepG2 [13]) | drug sensitivity score (U2OS [14]) | drug sensitivity score (Vero E6 [15])
1 | CC1(C)C(=O)N(CCN2CCC(C(=O)c3ccc(F)cc3)CC2)c2ccccc21 | 88.5% | 102% | 104% | 97.2% | 91.6% | 99.5% | 91.4% | 90.6% | 98.4% | 89.8% | 95.3% | 102% | 90.8% | 97% | 87.8% | 97.7% | 96.3% | 98.2% | 95.9% | 97.8% | 96.1% | 102% | 91.8% | 94.2% | 106% | > 10 µM | > 10 µM | > 10 µM | > 10 µM | > 10 µM | 0 | 0 | 0 | 0 | 0
2 | Cc1ccccc1OCC(O)CO (stereo not given) [mephenesin] | 90.8% | 96.5% | 94.4% | 93.1% | 92.7% | 111% | 91.1% | 103% | 101% | 106% | 107% | 113% | 109% | 102% | 99.8% | 101% | 96.8% | 104% | 97.1% | 100% | 110% | 103% | 99.6% | 102% | 98.4% | > 10 µM | > 10 µM | > 10 µM | > 10 µM | > 10 µM | 0 | 0 | 0 | 0 | 0
3 | CC(C)C[C@H](NC(=O)[C@@H](Cc1c[nH]c2ccccc12)NC(=O)[C@H](Cc1ccc(O)cc1)NC(=O)[C@H](CO)NC(=O)[C@H](Cc1c[nH]c2ccccc12)NC(=O)[C@H](Cc1c[nH]cn1)NC(=O)[C@@H]1CCC(=O)N1)C(=O)N[C@@H](CCCNC(=N)N)C(=O)N1CCC[C@H]1C(=O)NCC(N)=O [triptorelin] | 95.7% | 110% | 92.8% | 102% | 110% | 90.2% | 80.1% | 90% | 99.2% | 106% | 102% | 86.3% | 93% | 110% | 120% | 91.2% | 102% | 96.8% | 99.2% | 108% | 94.5% | 98.5% | 98% | 74.8% | 107% | > 10 µM | > 10 µM | > 10 µM | > 10 µM | > 10 µM | 0 | 0 | 0 | 0 | 0
4 | O=C1CS[C@@H](c2ccccc2Cl)c2cc(Cl)ccc2N1 (racemic) | 92.3% | 101% | 92.2% | 98.6% | 90.1% | 94.5% | 100% | 96.7% | 100% | 105% | 100% | 98.7% | 96.4% | 110% | 102% | 106% | 104% | 94.4% | 101% | 102% | 96.6% | 97.6% | 99.1% | 97.8% | 104% | > 10 µM | > 10 µM | > 10 µM | > 10 µM | > 10 µM | 0 | 0 | 0 | 0 | 0
5 | C=CC(=O)Nc1ccc2ncnc(Nc3ccc(OCc4cccc(F)c4)c(Cl)c3)c2c1 [AST-1306] | 93.4% | 105% | 83.3% | 80.6% | 6.1% | 98.9% | 80.4% | 40.4% | 32.3% | 4.3% | 102% | 96.7% | 107% | 92.8% | 48.2% | 91.4% | 72.7% | 91.5% | 61.3% | 23.4% | 99.8% | 97% | 83.7% | 51.8% | 17.7% | 1.72 µM | 0.0782 µM | 2.06 µM | 0.665 µM | 0.575 µM | 8.3 | 22.6 | 4 | 9.8 | 11.3
6 | COc1ccc(C(Cl)=C(c2ccc(OC)cc2)c2ccc(OC)cc2)cc1 [chlorotrianisene] | 98.5% | 97.5% | 98% | 104% | 102% | 98.5% | 95.9% | 104% | 83.6% | 99.9% | 98.5% | 94.9% | 93.6% | 111% | 101% | 95.5% | 97.8% | 101% | 102% | 93.6% | 93.8% | 103% | 91.8% | 99.5% | 106% | > 10 µM | > 10 µM | > 10 µM | > 10 µM | > 10 µM | 0 | 0 | 0 | 0 | 0
7 | O[C@@H](C[C@H]1c2ccccc2-c2cncn21)C1CCCCC1 [NLG919] | 97.6% | 97% | 102% | 95.8% | 86.3% | 106% | 111% | 92.7% | 105% | 85.6% | 108% | 95.9% | 102% | 93.5% | 94.1% | 93.1% | 93% | 94% | 96.7% | 90.7% | 97.3% | 98.5% | 93.3% | 89.8% | 84.2% | > 10 µM | > 10 µM | > 10 µM | > 10 µM | > 10 µM | 0.4 | 0.1 | 0 | 0 | 0.7
8 | C#C[C@]1(OC(C)=O)CC[C@H]2[C@@H]3CCC4=C[C@@H](OC(C)=O)CC[C@@H]4[C@H]3CC[C@@]21C [ethynodiol-diacetate] | 88.6% | 96.9% | 92.4% | 100% | 88.8% | 99.4% | 132% | 103% | 99.6% | 102% | 104% | 104% | 97.3% | 103% | 107% | 99% | 98.7% | 99.6% | 97.6% | 92.4% | 98.6% | 103% | 104% | 98.6% | 108% | > 10 µM | > 10 µM | > 10 µM | > 10 µM | > 10 µM | 0 | 0 | 0 | 0 | 0
9 | CC[C@@H](Nc1c(Nc2cccc(C(=O)N(C)C)c2O)c(=O)c1=O)c1ccc(C)o1 [navarixin] | 95% | 99.3% | 106% | 99.3% | 91.6% | 89.2% | 98.3% | 95.1% | 102% | 105% | 97.9% | 87.4% | 93.8% | 94.6% | 99% | 93.4% | 102% | 98.3% | 98.4% | 103% | 94.9% | 95.3% | 96.6% | 90.2% | 107% | > 10 µM | > 10 µM | > 10 µM | > 10 µM | > 10 µM | 0 | 0 | 0 | 0 | 0
10 | O=C1OC2(c3ccc(O)cc3Oc3cc(O)ccc32)c2ccccc21 [fluorescein] | 108% | 116% | 117% | 120% | 98.3% | 97.5% | 101% | 101% | 93.6% | 101% | 97.9% | 99.1% | 108% | 94.7% | 97.7% | 99.5% | 101% | 95.2% | 97.7% | 92.5% | 102% | 94.6% | 106% | 107% | 101% | > 10 µM | > 10 µM | > 10 µM | > 10 µM | > 10 µM | 0 | 0 | 0 | 0 | 0
11 | Cn1cc(-c2ccc(S(=O)(=O)n3ccc(/C=C/C(=O)Nc4ccccc4N)c3)cc2)cn1 [4SC-202] | 85.2% | 96.9% | 102% | 73.4% | 42% | 91.7% | 86% | 78.7% | 45.9% | 23.8% | 88.5% | 102% | 92.7% | 52.4% | 25.8% | 95.8% | 96.6% | 102% | 72.5% | 13.3% | 96.7% | 104% | 91% | 69.9% | 30.8% | 1.07 µM | 0.26 µM | 0.623 µM | 1.36 µM | 1.12 µM | 6.6 | 13.3 | 10.1 | 8.8 | 7.2
12 | CCCCNC(=O)NS(=O)(=O)c1ccc(C)cc1 [tolbutamide] | 101% | 96.7% | 96.2% | 96.3% | 96.3% | 95.1% | 90.2% | 95.7% | 107% | 94.3% | 87.5% | 98% | 103% | 94.3% | 99.9% | 101% | 98.5% | 99.2% | 96.7% | 98.6% | 104% | 103% | 105% | 102% | 97.4% | > 10 µM | > 10 µM | > 10 µM | > 10 µM | > 10 µM | 0 | 0 | 0 | 0 | 0
13 | CN([C@@H](Cc1ccc(OS(=O)(=O)c2cccc3cnccc23)cc1)C(=O)N1CCN(c2ccccc2)CC1)S(=O)(=O)c1cccc2cnccc12 [KN-62] | 93.4% | 119% | 112% | 89.6% | 101% | 105% | 95.8% | 98% | 93.9% | 91.1% | 123% | 110% | 105% | 101% | 95.7% | 101% | 100% | 99.9% | 95.4% | 92.3% | 104% | 96.6% | 98.9% | 96.3% | 94.8% | > 10 µM | > 10 µM | > 10 µM | > 10 µM | > 10 µM | 0 | 0 | 0 | 0 | 0
14 | O=C(Nc1ccccc1)N[C@H]1C[C@H](C(=O)O)Nc2cc(Cl)cc(Cl)c21 | 98.1% | 104% | 104% | 104% | 92.5% | 105% | 89.8% | 108% | 95.8% | 97.1% | 96.4% | 103% | 96.3% | 84.6% | 104% | 98% | 104% | 103% | 105% | 100% | 106% | 100% | 100% | 96.7% | 99.8% | > 10 µM | > 10 µM | > 10 µM | > 10 µM | > 10 µM | 0 | 0 | 0 | 0 | 0

From the supplement of paper PMC13380429
